The values that follow come from ChEMBL document CHEMBL1201862, “PubChem BioAssay data set” (2004).

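Cultured in 96-well plates, cells were exposed to test compound for 48 hours across five concentrations. GI50 marks 50% less growth.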 Activity calls are given as the source filed them. Rule as the data show it: active = GI50 up to about 1.1 µM and inactive = higher.

Among the test systems are A498; CAKI-1; CCRF-CEM; COLO 205; HCT-116; HL-60; HOP-62; LOX IMVI; M14; MOLT-4; NCI-H23; OVCAR-4; RPMI-8226; RXF 393; SK-MEL-5; SNB-75; SW-620; IGROV-1; OVCAR-8.
Holding throughout (test): NCI anticancer screen, dose series, 48 h

Consider `COc1ccc(C2N(NC(=O)c3ccncc3)C(=O)CS2(=O)=O)cc1F` (stereo not drawn), for which the GI50 in the test with A498, in the test on CAKI-1, in the test on CCRF-CEM, with COLO 205, in the test on HCT-116 and with HL-60 was > 100 µM (inactive) throughout. Besides, the GI50 was > 100 µM (inactive) with HOP-62; 60.4 µM (inactive) with LOX IMVI; > 100 µM (inactive) in the test with M14; 14 µM (inactive) in the test on MOLT-4; > 100 µM (inactive) in the test with NCI-H23; > 100 µM (inactive) with OVCAR-4. For the same compound, the GI50 in the test with RPMI-8226 is > 100 µM (inactive); in the test on RXF 393 it was > 100 µM (inactive); in the test with SK-MEL-5 it was > 100 µM (inactive); in the test with SNB-75 it was 37.6 µM (inactive); in the test with SW-620, > 100 µM (inactive).
Turning to `COc1cc(C2C(=O)C(Cl)N2Nc2nc(C)cc(O)n2)cc(OC)c1OC` (stereo not drawn), the GI50 in the test with CCRF-CEM was < 0.01 µM (active); in the test on COLO 205 it was > 10 µM (inactive); in the test on HCT-116, 16.2 µM (inactive); in the test with HL-60, 9.84 µM (inactive); in the test with HOP-62, 7.21 µM (inactive); in the test with IGROV-1, 10.1 µM (inactive). The GI50 in the test on LOX IMVI was 10.5 µM (inactive); with M14, 12.5 µM (inactive); in the test on MOLT-4 it was 10.6 µM (inactive); in the test on NCI-H23, 15.4 µM (inactive); in the test on OVCAR-4 it was 16.1 µM (inactive); in the test on OVCAR-8, 17.1 µM (inactive). Moreover, the GI50 in the test with RPMI-8226 is > 10 µM (inactive); in the test with RXF 393, 12.3 µM (inactive); in the test on SK-MEL-5, 12.9 µM (inactive); in the test with SNB-75 it was 2.33 µM (inactive); in the test with SW-620, 22.2 µM (inactive).
Take `Cc1ccc(CCC(=O)C(=O)O)s1`: the GI50 was 89.5 µM (inactive) with A498; 30.9 µM (inactive) in the test on CAKI-1; > 100 µM (inactive) with CCRF-CEM; > 100 µM (inactive) in the test with COLO 205; 41 µM (inactive) in the test on HCT-116; > 100 µM (inactive) in the test on HL-60. In addition, the GI50 in the test with HOP-62, with IGROV-1, with M14, in the test on MOLT-4, in the test on NCI-H23 and in the test on OVCAR-4 was > 100 µM (inactive) in each case. Besides, the GI50 with OVCAR-8, in the test with RPMI-8226, in the test on SK-MEL-5, with SNB-75 and in the test with SW-620 was > 100 µM (inactive) throughout.
For the compound `COc1cc2ccc(CC(N)=O)cc2cc1OC`, the GI50 in the test on CCRF-CEM, with COLO 205, in the test on HCT-116, with HOP-62, with IGROV-1 and in the test on LOX IMVI was > 100 µM (inactive) in each case. Besides, the GI50 in the test on M14, in the test with MOLT-4, in the test with NCI-H23, in the test on OVCAR-4, in the test on OVCAR-8 and in the test with RPMI-8226 was > 100 µM (inactive) in each case. Also, the GI50 in the test with RXF 393 was > 100 µM (inactive); in the test with SK-MEL-5 it was > 100 µM (inactive); with SNB-75, 40.3 µM (inactive); in the test on SW-620, > 100 µM (inactive).
Turning to `O=c1ccc2cc3ccc4cccc5ccc(c2o1)c3c45`, the GI50 with A498 was 16 µM (inactive); in the test with CAKI-1, > 100 µM (inactive); in the test with CCRF-CEM, > 100 µM (inactive); with COLO 205, > 100 µM (inactive); with HL-60, > 100 µM (inactive); with IGROV-1 it was > 100 µM (inactive). Besides, the GI50 is 12.1 µM (inactive) in the test on LOX IMVI; > 100 µM (inactive) in the test on M14; > 100 µM (inactive) in the test on MOLT-4; 67.8 µM (inactive) with NCI-H23; 23.2 µM (inactive) in the test with OVCAR-8; > 100 µM (inactive) with RPMI-8226. Further, the GI50 with SK-MEL-5 is 40.4 µM (inactive); in the test on SNB-75, 24.7 µM (inactive); in the test with SW-620, 31.8 µM (inactive).
For `O=C1C=CC=C/C1=C1/SC(c2ccccc2)=C(O)N1c1ccccc1`, the GI50 in the test with CAKI-1, in the test on COLO 205, in the test on HCT-116, in the test with IGROV-1, with NCI-H23 and in the test with OVCAR-4 was > 100 µM (inactive) in each case. Further, the GI50 in the test with OVCAR-8, in the test on RXF 393, in the test with SK-MEL-5, in the test on SNB-75 and in the test with SW-620 was > 100 µM (inactive) throughout.
With `Clc1ccc(-c2nnc(-c3nsc4ccccc34)o2)cc1`, the GI50 was 71.8 µM (inactive) with COLO 205; 18.2 µM (inactive) with HCT-116; 13.8 µM (inactive) in the test on HOP-62; 18.5 µM (inactive) in the test with IGROV-1; 40.1 µM (inactive) in the test on LOX IMVI; 47.2 µM (inactive) in the test on M14. For the same compound, the GI50 in the test on NCI-H23 is 17.5 µM (inactive); in the test on OVCAR-4, 14.2 µM (inactive); in the test with OVCAR-8, 25.1 µM (inactive); in the test on RPMI-8226 it was 24.2 µM (inactive); in the test with RXF 393 it was 38.3 µM (inactive); with SK-MEL-5 it was 31.3 µM (inactive). Besides, the GI50 was 8.17 µM (inactive) with SNB-75 and 50.5 µM (inactive) in the test on SW-620.
Consider `COc1ccc(/C=N/n2c(C)nc3c(sc(=S)n3-c3ccccc3)c2=O)cc1`, for which the GI50 with A498 was 36 µM (inactive); with CCRF-CEM, 21.1 µM (inactive); with COLO 205, > 100 µM (inactive); with HCT-116, > 100 µM (inactive); with HL-60, 21.6 µM (inactive); with HOP-62, 66.8 µM (inactive). For the same compound, the GI50 is > 100 µM (inactive) in the test with IGROV-1; 34.4 µM (inactive) in the test on MOLT-4; > 100 µM (inactive) in the test on NCI-H23; > 100 µM (inactive) with OVCAR-8; 27 µM (inactive) in the test with RPMI-8226; > 100 µM (inactive) in the test with SK-MEL-5. Further, the GI50 is 14.4 µM (inactive) in the test on SNB-75 and > 100 µM (inactive) in the test with SW-620.
Regarding `O=C(N/N=C/C=C/c1ccccc1)[C@H](O)[C@@H](O)C(=O)N/N=C/C=C/c1ccccc1`, the GI50 with A498, with CCRF-CEM, in the test on COLO 205, in the test on HCT-116, with HL-60 and with IGROV-1 was > 100 µM (inactive) in each case. The GI50 in the test on LOX IMVI, in the test with MOLT-4, with NCI-H23, with OVCAR-8, with RPMI-8226 and in the test on RXF 393 was > 100 µM (inactive) in each case. The GI50 in the test with SK-MEL-5 and in the test with SW-620 was > 100 µM (inactive) throughout.
For `O=C1CN2C(Cl)(Cl)C2(c2ccccc2)c2cc(Cl)ccc2N1CC1CC1` (stereo not drawn), the GI50 in the test on CAKI-1 was 23.3 µM (inactive); with CCRF-CEM, 27.2 µM (inactive); in the test on COLO 205 it was 19.9 µM (inactive); in the test with HCT-116 it was 18.3 µM (inactive); in the test on HOP-62 it was 23.4 µM (inactive); with LOX IMVI, 17.3 µM (inactive). Also, the GI50 with M14 was 20.1 µM (inactive); in the test on MOLT-4 it was 24 µM (inactive); with NCI-H23, 25.2 µM (inactive); in the test with OVCAR-4, 30.3 µM (inactive); in the test on OVCAR-8, 14.6 µM (inactive); with RPMI-8226 it was 37.2 µM (inactive). The GI50 is 18.7 µM (inactive) with RXF 393, 20.2 µM (inactive) in the test on SK-MEL-5, 25.2 µM (inactive) in the test with SNB-75 and 29.6 µM (inactive) in the test on SW-620.
As for `CC1(C)N=C(Oc2ccccc2)n2nccc2N1`, the GI50 with A498 was > 100 µM (inactive); with CAKI-1 it was > 100 µM (inactive); in the test on CCRF-CEM it was > 100 µM (inactive); with COLO 205, 87.1 µM (inactive); in the test with HCT-116 it was 51.9 µM (inactive); in the test on HL-60 it was > 100 µM (inactive). Also, the GI50 in the test with HOP-62 is > 100 µM (inactive); with IGROV-1 it was > 100 µM (inactive); in the test with LOX IMVI, 53.8 µM (inactive); with M14, 73.1 µM (inactive); with MOLT-4 it was > 100 µM (inactive); in the test with NCI-H23, > 100 µM (inactive). The GI50 with OVCAR-4, with RPMI-8226, with RXF 393, in the test with SK-MEL-5, in the test with SNB-75 and with SW-620 was > 100 µM (inactive) each time.
As for `CCN(CC)C(=O)c1cc(OC(C)C)ccc1-c1c(C)cc(OC(C)C)c(OC)c1OC`, the GI50 was 84.5 µM (inactive) with CAKI-1; 34 µM (inactive) in the test with CCRF-CEM; 63.7 µM (inactive) in the test on COLO 205; 38.2 µM (inactive) in the test with HCT-116; 45.9 µM (inactive) in the test with HL-60; > 100 µM (inactive) with HOP-62. Besides, the GI50 in the test on IGROV-1 was > 100 µM (inactive); in the test with LOX IMVI it was 58.9 µM (inactive); in the test with M14, 79.4 µM (inactive); in the test on MOLT-4, 25.5 µM (inactive); with NCI-H23, 60 µM (inactive); in the test on OVCAR-4, 47.5 µM (inactive). Besides, the GI50 in the test with OVCAR-8 is 58.5 µM (inactive); with RPMI-8226, 24.2 µM (inactive); with RXF 393 it was 43 µM (inactive); in the test with SK-MEL-5 it was 35.6 µM (inactive); in the test with SW-620, 98.4 µM (inactive).
On to `O=C1CCC(c2ccccc2)=NN1c1nsc2ccccc12`, for which the GI50 with CCRF-CEM is 61.4 µM (inactive); in the test with COLO 205, > 100 µM (inactive); in the test on HCT-116, 99.3 µM (inactive); in the test with HL-60 it was > 100 µM (inactive); in the test on HOP-62, > 100 µM (inactive); with IGROV-1, 97.9 µM (inactive). Besides, the GI50 in the test on LOX IMVI is > 100 µM (inactive); in the test on M14, > 100 µM (inactive); in the test on MOLT-4, 60 µM (inactive); with NCI-H23, > 100 µM (inactive); in the test on OVCAR-4, > 100 µM (inactive); in the test with OVCAR-8, > 100 µM (inactive). The GI50 is 70.1 µM (inactive) in the test with RPMI-8226; > 100 µM (inactive) in the test with RXF 393; > 100 µM (inactive) in the test on SK-MEL-5; 7.21 µM (inactive) in the test with SNB-75; > 100 µM (inactive) with SW-620.
